Values quoted from earlier work in patent US20210213129A1, “NON-PSYCHOACTIVE CANNABINOIDS AS ADJUVANTS TO ENHANCE MUCOSAL IMMUNITY” (Immugen Pharma LLC, priority 2014, published 2021).

Key:
[1] = system: virgin and GC B cells
[2] = system: B-cells; details: cultured B-cells, co-stimulation with IL-4 and anti-CD40
[3] = system: macrophages; details: macrophages activated by LPS or TMEV
[4] = system: B cells; details: selective CB1 antagonist added
[5] = system: GATA3; IL12Rβ2; details: mice, after Legionella challenge
[6] = system: T cells; details: mixed lymphocyte reaction and highly purified T cells
[7] = system: T cells; details: T cells stimulated by allogeneic dendritic cells or anti-CD3/anti-CD28

**Q.** Which results are given for `CCCCCCC(C)(C)c1ccc([C@@H]2C[C@H](O)CC[C@H]2CCCO)c(O)c1` [CP55940]?
**A.** proliferation of B-cell subsets ([1]; in the absence of CD40 MoAbs): incapable of inducing any proliferation; increased IgE expression [2]: 40-60%

**Q.** With `CCCC(C)(C)c1ccc2c(c1)OC(C)(C)[C@@H]1CC=C(C)C[C@@H]21` [JWH-133] as the molecule, how does the IL-12p40 [3] read?
**A.** downregulated

**Q.** With `Cc1c(C(=O)NN2CCCCC2)nn(-c2ccc(Cl)cc2Cl)c1-c1ccc(Cl)cc1` [SR141716A] as the molecule, how does the “block of CB2 receptor mRNA expression and of the B-cell enhancing effects of the drug” value [4] read?
**A.** did not block

**Q.** Which “proliferative response of virgin and GC B cells by CP55,940” value ([1]; selective CB2 receptor antagonist against agonist CP55,940) does the source give for `Cc1ccc(Cn2nc(C(=O)NC3C4(C)CCC(C4)C3(C)C)cc2-c2ccc(Cl)c(C)c2)cc1` (centres unmarked) [SR 144528A] here?
**A.** inhibited

**Q.** Which results are given for `CCCCCc1cc(O)c2c(c1)OC(C)(C)[C@@H]1CCC(C)=C[C@@H]21` [THC, tetrahydrocannabinol]?
**A.** TH2 biasing factor GATA3 ([5]; CB2 mechanism): upregulation; IL12Rβ2, a marker of TH1 polarization ([5]; mediated by CB1 receptor): downregulation; Th1 cytokines Il-2, IFN-γ and Il-12 ([6]; CB1 mediated): downregulation; IL-4 and Il-5 ([6]; CB2 mediated): upregulation; IL-4, % of diluent control levels ([7]; of diluent control levels): 105±11%; decrease of INF-γ ([7]; p<0.05): 51±18%
